One may read the IC50 as the concentration needed to halve the response being measured.

Type in all cases: biochemical
One assay concerns the target T1, KDM2B (FBXL10) (Homo sapiens, UniProt Q8NHM5).
T1 construct: 1-650; purchased BPS Bioscience, US; host or cells: Bac (baculovirus/insect cells)
T1 sequence (Q8NHM5 1-650): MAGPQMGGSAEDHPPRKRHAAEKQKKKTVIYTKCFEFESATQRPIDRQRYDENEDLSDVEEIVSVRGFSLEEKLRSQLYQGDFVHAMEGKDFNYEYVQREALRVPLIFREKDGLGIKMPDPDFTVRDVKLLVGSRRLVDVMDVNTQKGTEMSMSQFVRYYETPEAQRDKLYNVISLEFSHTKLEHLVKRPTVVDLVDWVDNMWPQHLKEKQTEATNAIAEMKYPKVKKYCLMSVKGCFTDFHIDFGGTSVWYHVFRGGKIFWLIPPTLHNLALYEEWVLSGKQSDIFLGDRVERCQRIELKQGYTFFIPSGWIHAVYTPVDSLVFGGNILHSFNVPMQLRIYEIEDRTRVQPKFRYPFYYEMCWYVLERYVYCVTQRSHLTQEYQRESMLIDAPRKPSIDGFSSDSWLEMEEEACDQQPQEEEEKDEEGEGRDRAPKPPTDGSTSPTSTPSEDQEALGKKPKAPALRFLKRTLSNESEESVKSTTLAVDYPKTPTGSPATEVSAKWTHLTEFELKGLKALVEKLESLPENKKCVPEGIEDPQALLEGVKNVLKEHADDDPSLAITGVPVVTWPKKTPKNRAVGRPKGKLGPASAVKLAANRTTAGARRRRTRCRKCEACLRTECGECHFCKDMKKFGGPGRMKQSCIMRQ
Kind of assay: Histone lysine demethylase AlphaLISA assay, KDM2B. Conditions: in vitro enzyme, read-out: KDM2B IC50 (HDME Inhibition). The method, then: (§1) Histone lysine demethylase AlphaLISA assays are performed to determine IC50 values. […] Assays are performed analogously to the protocol described by PerkinElmer (Roy et al. PerkinElmer Technical Note: AlphaLISA #12, April 2011).
(§2) Assays are performed analogously to the protocol described by PerkinElmer (Roy et al. PerkinElmer Technical Note: AlphaLISA #12, April 2011).
(§3) Enzymes (final assay concentration 0.1-2.5 nM) are dissolved in enzyme buffer and incubated for 10 min before 5 μL is added to 5 μL 3% DMSO solutions of compounds in enzyme buffer, incubated for another 10 minutes, before 5 μL substrate solution is added and the reaction mixture is incubated at room temperature. 10 μL acceptor beads, suspended Epigenetic Buffer (Perkin Elmer AL008) from stock, are added and the suspension is incubated in the dark at room temperature, before 10 μL suspension of streptavidin donor beads (Perkin Elmer 6760002) in Epigenetic Buffer is added. After incubation at room temperature in the dark the plates are read.
(§4) Substrate solution: Substrate (final assay concentration 50-200 nM), 50 mM Hepes (pH 7.4-8.0), 0.003% Tween-20, 0.1% BS, 25 μM L-Asc, 10 μM α-KG. Enzyme Buffer: 50 mM Hepes (pH 7.4-8.0), 0.003% Tween-20, 0.1% BSA; 5 μM (NH4)2Fe(SO4)2

Another assay deals with T2, KDM5B (PLU-1) (Homo sapiens, UniProt Q9UGL1).
T2 construct: 1-809; host or cells: E. coli
T2 sequence (Q9UGL1 1-809): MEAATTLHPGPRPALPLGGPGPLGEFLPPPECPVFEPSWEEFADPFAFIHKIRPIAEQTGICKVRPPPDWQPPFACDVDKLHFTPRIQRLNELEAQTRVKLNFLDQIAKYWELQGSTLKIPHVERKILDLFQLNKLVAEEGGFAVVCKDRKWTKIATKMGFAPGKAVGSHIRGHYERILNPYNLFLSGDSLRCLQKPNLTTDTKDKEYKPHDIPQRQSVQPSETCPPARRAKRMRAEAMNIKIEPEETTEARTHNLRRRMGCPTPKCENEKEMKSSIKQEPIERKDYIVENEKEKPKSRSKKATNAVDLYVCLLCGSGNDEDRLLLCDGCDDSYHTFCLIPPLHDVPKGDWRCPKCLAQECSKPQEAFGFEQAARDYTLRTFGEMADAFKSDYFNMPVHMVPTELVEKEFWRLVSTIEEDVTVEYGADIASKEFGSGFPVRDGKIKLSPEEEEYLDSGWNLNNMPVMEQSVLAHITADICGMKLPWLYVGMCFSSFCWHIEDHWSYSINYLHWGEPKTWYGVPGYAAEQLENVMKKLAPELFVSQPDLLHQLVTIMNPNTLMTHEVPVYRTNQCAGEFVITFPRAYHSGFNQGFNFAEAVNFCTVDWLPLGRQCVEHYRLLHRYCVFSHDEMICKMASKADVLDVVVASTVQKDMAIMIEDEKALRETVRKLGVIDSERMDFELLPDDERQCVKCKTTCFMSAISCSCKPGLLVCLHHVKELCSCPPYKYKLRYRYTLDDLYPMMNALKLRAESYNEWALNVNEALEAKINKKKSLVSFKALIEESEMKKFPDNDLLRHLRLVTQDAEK
Kind of assay: Histone lysine demethylase AlphaLISA assay, KDM5B. Conditions: in vitro enzyme, read-out: KDM5B IC50 (HDME Inhibition). The method, then: as §1, §2, §3, §4
Background: Alpha assays give light when donor and acceptor beads are brought close together.

The next assay concerns the target PHF8 (KDM7) (Homo sapiens, UniProt Q9UPP1). Briefly: Histone lysine demethylase AlphaLISA assay, PHF8. Conditions: in vitro enzyme, read-out: PHF8 IC50 (HDME Inhibition). How it is done:
as §1, §2, §3, §4

In the next assay the target is T3, KDM6A (UTX) (Homo sapiens, UniProt O15550).
T3 construct: 919-1401; host or cells: E. coli
T3 sequence (O15550 919-1401): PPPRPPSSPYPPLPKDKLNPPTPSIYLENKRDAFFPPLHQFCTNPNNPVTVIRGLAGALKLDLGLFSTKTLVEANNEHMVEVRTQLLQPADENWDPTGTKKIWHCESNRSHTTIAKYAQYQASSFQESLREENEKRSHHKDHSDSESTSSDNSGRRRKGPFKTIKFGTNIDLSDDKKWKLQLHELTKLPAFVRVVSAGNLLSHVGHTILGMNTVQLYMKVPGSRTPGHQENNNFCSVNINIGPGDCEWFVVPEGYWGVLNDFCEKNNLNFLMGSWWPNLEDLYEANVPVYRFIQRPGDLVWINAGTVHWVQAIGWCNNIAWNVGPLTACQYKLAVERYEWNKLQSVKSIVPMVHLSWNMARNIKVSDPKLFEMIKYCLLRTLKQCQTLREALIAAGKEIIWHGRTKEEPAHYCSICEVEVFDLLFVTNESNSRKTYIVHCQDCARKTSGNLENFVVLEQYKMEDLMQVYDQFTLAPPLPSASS
Briefly: Histone lysine demethylase AlphaLISA assay, KDM6A. Conditions: in vitro enzyme, read-out: KDM6A IC50 (HDME Inhibition). The method, then: as §1, §2, §3, §4

Chain of PHF8 (KDM7) (Q9UPP1 whole entry): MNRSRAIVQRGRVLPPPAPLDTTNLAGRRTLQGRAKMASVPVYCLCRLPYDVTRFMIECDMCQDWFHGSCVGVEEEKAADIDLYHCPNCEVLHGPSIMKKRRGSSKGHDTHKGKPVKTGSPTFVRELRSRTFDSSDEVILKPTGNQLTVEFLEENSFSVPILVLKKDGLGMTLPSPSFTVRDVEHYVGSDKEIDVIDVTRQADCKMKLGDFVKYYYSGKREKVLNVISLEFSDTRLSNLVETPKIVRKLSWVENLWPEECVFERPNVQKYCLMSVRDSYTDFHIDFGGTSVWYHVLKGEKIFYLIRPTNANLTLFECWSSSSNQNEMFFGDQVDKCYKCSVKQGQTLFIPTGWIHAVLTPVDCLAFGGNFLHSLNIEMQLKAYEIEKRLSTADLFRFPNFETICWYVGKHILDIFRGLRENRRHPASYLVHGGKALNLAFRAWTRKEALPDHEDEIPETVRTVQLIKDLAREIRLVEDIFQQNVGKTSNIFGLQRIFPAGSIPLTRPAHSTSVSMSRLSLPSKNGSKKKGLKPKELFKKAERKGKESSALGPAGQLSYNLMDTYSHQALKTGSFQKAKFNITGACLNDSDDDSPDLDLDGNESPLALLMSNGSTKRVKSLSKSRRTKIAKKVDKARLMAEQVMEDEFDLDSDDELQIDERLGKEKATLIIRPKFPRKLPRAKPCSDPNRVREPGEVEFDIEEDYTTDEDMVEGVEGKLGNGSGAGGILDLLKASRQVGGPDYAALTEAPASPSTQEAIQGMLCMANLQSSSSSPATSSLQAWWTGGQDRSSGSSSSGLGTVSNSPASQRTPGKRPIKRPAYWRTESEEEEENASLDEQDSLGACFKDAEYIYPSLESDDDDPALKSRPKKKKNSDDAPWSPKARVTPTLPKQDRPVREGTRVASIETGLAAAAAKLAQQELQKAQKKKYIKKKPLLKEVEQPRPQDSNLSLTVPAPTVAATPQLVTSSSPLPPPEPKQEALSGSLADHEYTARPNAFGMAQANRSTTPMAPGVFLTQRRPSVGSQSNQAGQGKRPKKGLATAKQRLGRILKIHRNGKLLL

Regarding `O=C(O)c1ccnc(CNCC(=O)N2CCCCC2)n1` [Compound 23, 2-({[2-oxo-2-(piperidin-1-yl)ethyl]amino}methyl) pyrimidine-4-carboxylic acid], the half-maximal inhibitory concentration (IC50) was 0.25 to 2.5 µM on KDM2B (FBXL10) and > 2.5 µM at KDM5B (PLU-1).
As to `C=CCN(CC=C)C(=O)[C@H](CCS(C)(=O)=O)NCc1cc(C(=O)O)ccn1` [Compound 29, 2-({[(1S)-1-[bis(prop-2-en-1-yl)carbamoyl]-3-methanesulfonylpropyl]amino}methyl)pyridine-4-carboxylic acid], the IC50 at KDM5B (PLU-1) and at PHF8 (KDM7) was > 2.5 µM each time.
In the case of `CC[C@H]1CCN(Cc2cc(C(=O)O)ccn2)[C@@H]1CO` [Compound 65, 2-{[(2S,3S)-3-ethyl-2-(hydroxymethyl)pyrrolidin-1-yl]methyl}pyridine-4-carboxylic acid], the 50% inhibitory concentration (IC50) at KDM5B (PLU-1), at PHF8 (KDM7) and at KDM6A (UTX) was > 2.5 µM throughout.
`O=C(O)c1ccnc(CN2CCC[C@H]2C(=O)N2CCCCC2)c1` [Compound 55, 2-{[(2S)-2-(piperidine-1-carbonyl)pyrrolidin-1-yl]methyl}pyridine-4-carboxylic acid]: the IC50 on KDM5B (PLU-1) and at PHF8 (KDM7) was > 2.5 µM throughout.
With `CN(C)CC1CCN(Cc2cc(C(=O)O)ccn2)Cc2nccn21` (stereo not drawn) [Compound 54, 2-({5-[(dimethylamino)methyl]-5H,6H,7H,8H,9H-imidazo[1,2-a][1,4]diazepin-8-yl}methyl)pyridine-4-carboxylic acid], the IC50 is > 2.5 µM at KDM2B (FBXL10) and 0.25 to 2.5 µM on KDM5B (PLU-1).
In the case of `O=C(O)c1ccnc(CN2CCC[C@@H]2C(=O)N2CCCCC2)c1` [Compound 56, 2-{[(2R)-2-(piperidine-1-carbonyl)pyrrolidin-1-yl]methyl}pyridine-4-carboxylic acid], the IC50 was > 2.5 µM on KDM5B (PLU-1) and 0.25 to 2.5 µM at PHF8 (KDM7).
On to `O=C(O)c1ccnc(CNCc2cn(Cc3ccc(F)cc3)c3ncccc23)c1` [Compound 83, 2-[({[1-(4-fluorobenzyl)-1H-pyrrolo[2,3-b]pyridin-3-yl]methyl}amino)methyl]pyridine-4-carboxylic acid], for which the IC50 on KDM5B (PLU-1) is 0.25 to 2.5 µM; at PHF8 (KDM7) it was < 0.25 µM; on KDM6A (UTX), > 2.5 µM.
For `CCNC(=O)C1CCN(Cc2cc(C(=O)O)ccn2)C1` (stereo not drawn) [Compound 76, 2-{[3-(ethylcarbamoyl)pyrrolidin-1-yl]methyl}pyridine-4-carboxylic acid], in that order: 0.25 to 2.5 µM, 0.25 to 2.5 µM and > 2.5 µM.
The matching figures for `CC(N[C@H](C)c1nccs1)c1cc(C(=O)O)ccn1` (stereo partly drawn) [Compound 30, 2-(1-{[(1R)-1-(1,3-thiazol-2-yl)ethyl]amino}ethyl) pyridine-4-carboxylic acid]: > 2.5 µM, 0.25 to 2.5 µM and > 2.5 µM.
Consider `CC(N[C@@H](C)C(=O)NCc1ccccc1[N+](=O)[O-])c1cc(C(=O)O)ccn1` (stereo partly drawn) [Compound 8, 2-(1-{[(1S)-1-{[(2-nitrophenyl)methyl]carbamoyl}ethyl]amino}ethyl)pyridine-4-carboxylic acid], for which the 50% inhibitory concentration (IC50) at KDM5B (PLU-1), on PHF8 (KDM7) and on KDM6A (UTX) was > 2.5 µM in each case.
With `CCNC(=O)C[C@@H]1CCN(Cc2cc(C(=O)O)ccn2)C1` [Compound 77, 2-{[(3S)-3-[(ethylcarbamoyl)methyl]pyrrolidin-1-yl]methyl}pyridine-4-carboxylic acid], the values for the IC50 on KDM5B (PLU-1), on PHF8 (KDM7) and on KDM6A (UTX) were 0.25 to 2.5 µM, 0.25 to 2.5 µM and > 2.5 µM, respectively.
On to `CC(C)C[C@@H](COCc1ccccc1)NCc1cc(C(=O)O)ncn1` [Compound 89, 6-({[(2S)-1-(benzyloxy)-4-methylpentan-2-yl]amino}methyl) pyrimidine-4-carboxylic acid], for which the IC50 at PHF8 (KDM7) was 0.25 to 2.5 µM; at KDM6A (UTX), > 2.5 µM.
As for `O=C(O)c1ccnc(CN2CC[C@H]2CO)c1` [Compound 64, 2-{[(2S)-2-(hydroxymethyl)azetidin-1-yl]methyl}pyridine-4-carboxylic acid], the IC50 at KDM5B (PLU-1) is 0.25 to 2.5 µM; on PHF8 (KDM7) it was > 2.5 µM; on KDM6A (UTX), > 2.5 µM.
With `C=CCN(CC=C)C(=O)[C@H](CCCCNC(=O)NC(C)(C)C)NCc1cc(C(=O)O)ccn1` [Compound 9, 2-({[(1S)-1-[bis(prop-2-en-1-yl)carbamoyl]-5-[(tert-butylcarbamoyl)amino]pentyl]amino}methyl) pyridine-4-carboxylic acid], the concentration for half-maximal inhibition (IC50) on KDM5B (PLU-1) is 0.25 to 2.5 µM; on PHF8 (KDM7), > 2.5 µM; on KDM6A (UTX), > 2.5 µM.
As to `O=C(O)c1ccnc(CN2CCC[C@@H]2CO)c1` [Compound 57, 2-{[(2R)-2-(hydroxymethyl)pyrrolidin-1-yl]methyl}pyridine-4-carboxylic acid], the concentration for half-maximal inhibition (IC50) on KDM5B (PLU-1) and on PHF8 (KDM7) was < 0.25 µM in each case.
For `O=C(O)c1ccnc(CN2CCC[C@H]2CO)c1` [Compound 58, 2-{[(2S)-2-(hydroxymethyl)pyrrolidin-1-yl]methyl}pyridine-4-carboxylic acid], the IC50 was < 0.25 µM at KDM5B (PLU-1) and 0.25 to 2.5 µM on PHF8 (KDM7).
Consider `O=C(O)c1ccnc(CNCc2cccnc2)c1` [Compound 84, 2-{[(pyridin-3-ylmethyl)amino]methyl}pyridine-4-carboxylic acid], for which the IC50 at KDM5B (PLU-1) was < 0.25 µM; at PHF8 (KDM7) it was < 0.25 µM; at KDM6A (UTX) it was > 2.5 µM.
For the molecule `C=CCN(CC=C)C(=O)[C@H](CCCCN(C)C(=O)NC)NCc1cc(C(=O)O)ccn1` [Compound 20, 2-({[(1S)-1-[bis(prop-2-en-1-yl)carbamoyl]-5-[methyl(methylcarba-moyl)amino]pentyl]amino}methyl)pyridine-4-carboxylic acid], the IC50 was 0.25 to 2.5 µM at KDM5B (PLU-1), > 2.5 µM on PHF8 (KDM7) and > 2.5 µM at KDM6A (UTX).
For `C=CCN(CC=C)C(=O)[C@@H](CCCCNCCC)NCc1cc(C(=O)O)ccn1` [Compound 3, 2-({[(1R)-1-[bis(prop-2-en-1-yl)carbamoyl]-5-(propylamino)pentyl]amino}methyl)pyridine-4-carboxylic acid], the half-maximal inhibitory concentration (IC50) on KDM5B (PLU-1) was > 2.5 µM; on PHF8 (KDM7), 0.25 to 2.5 µM.
For the molecule `CCNC(=O)C1CCCN(Cc2cc(C(=O)O)ccn2)C1` (stereo not drawn) [Compound 74, 2-{[3-(ethylcarbamoyl)piper-idin-1-yl]methyl}pyridine-4-carboxylic acid], the IC50 was 0.25 to 2.5 µM on KDM5B (PLU-1), > 2.5 µM on PHF8 (KDM7) and > 2.5 µM at KDM6A (UTX).

(Values after patent US20170369444A1, “INHIBITORS OF HISTONE DEMETHYLASES” (Gilead Sciences, Inc., priority 2014, published 2017).)
